The source of these data is patent US10808009B2, “Peptide conjugates” (BIONIZ, LLC, priority 2011, dated 2020).

The subject of one data set is γc-cytokines. As to the kind of experiment: Target cytokine spectrum within the γc-family (summary statements). The data set is classed as cell-based.
In data set [1] the test system is IL-15-mediated tyrosine-phosphorylation of STAT5. The data set is described as follows: IL-15-mediated tyrosine phosphorylation of STAT5 in PT-18β cells (immunoblot). The format is cell-based, murine. To be noted: PT-18β cells stimulated by IL-15, anti-phospho-STAT5 immunoblot. An excerpt:
In addition to stimulating cellular proliferation, binding of the γc-cytokines to their receptors causes a diverse array of intracellular events. (Rochman et al. 2009 Nat. Rev. Immunol. 9:480-90, Pesu et al. 2005 Immunol. Rev. 203:127-142.) Immediately after the cytokine binds to its receptor, a tyrosine kinase called Jak3 (Janus-kinase 3) is recruited to the receptor at the plasma membrane. This kinase phosphorylates the tyrosine residues of multiple proteins including the γc-subunit, STAT5 (Signal Transducer and Activator of Transcription 5) and subunits of the PI3 (Phosphatidylinositol 3) kinase. Among these, the phosphorylation of STAT5 has been implicated in many studies as being linked to the proliferation of cells initiated by the γc-cytokine. (Reviewed in Hennighausen and Robinson, 2008 Genes Dev. 22:711-21.) In accordance with these published data, whether or not the BNZ-γ peptide inhibits the tyrosine phosphorylation of STAT5 molecule in PT-18β cells stimulated by IL-15 was examined (results shown in FIG. 3C).
PT-18β cells were stimulated by IL-15 in the presence or absence of BNZ-γ peptide. Cytoplasmic proteins were extracted from the cells according to a conventional method as described in Tagaya et al. 1996 EMBO J. 15:4928-39. […]
Background: A western blot detects proteins with antibodies after separation by electrophoresis.

Data set [2] has as its system T-cells in HAM/TSP culture.
Method: Proliferation assays were performed on HAM/TSP patient blood samples with and without the addition of BNZ-γ. These assays evaluated the ability of BNZ-γ to block the function of cytokines, such as IL-2 and IL-15, present in the ex vivo HAM/TSP patient blood culture and prevent spontaneous T-cell proliferation in these samples.
In an ex vivo spontaneous T-cell proliferation assay, PBMC from HAM/TSP patient was cultured at 1×10(6) cells per well of a 96 well plate in RPMI-10% FCS. Increasing concentrations of BNZ-γ peptide were added to each well. […] The cells were incubated in a 37° C. CO2 incubator for 3, 4, and 6 days. The amount of 1 uCi of ^3H-thymidine was added to the cells. After an additional 6 hour incubation, cells were harvested their proliferation rate was measured.
Other immunological markers were additionally measured in this assay. […] The population of CD4+CD25+ cells, a marker of T-cell activation, as well as Ki67 staining, a marker of T-cell proliferation, was monitored in a flow cytometry assay.
Another data set has as its target T1, IL-4 (Mus musculus, UniProt P07750).
T1 sequence (P07750 21-140): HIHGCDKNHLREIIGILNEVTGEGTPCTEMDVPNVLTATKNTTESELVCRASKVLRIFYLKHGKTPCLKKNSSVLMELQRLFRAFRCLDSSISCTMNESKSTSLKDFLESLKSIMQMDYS
As to the kind of experiment: PT-18β proliferation assay (WST-1), IL-4. The format is cell-based. The note with it: PT-18β cells, 1 nM IL-4, BNZ-γ from HEK293T supernatant 1:20 or 1:50, 2 days. An excerpt: (§1) For each of the six γc-cytokines, indicator cell lines: CTLL-2, a murine CD8 T cells line available from American Type Culture Collection, and PT-18, a murine mast cell line and its subclone PT-183, is transfected with human IL-2Rβ gene to make the cells responsive to IL-2 and IL-15 (Tagaya et al., 1996, EMBO J. 15:4928-39), and is used to quantitatively determine the γc-cytokine's growth-promoting activity (See Current protocols in Immunology from Wiley and Sons for a methodological reference). […] Once the appropriate doses of the cytokine that yield the 50% and 95% maximum response from the indicator cell line is determined, various concentrations (ranging from 1 pM to 10 μM) of the purified or synthesized custom derivative peptide is added to each well containing the cytokine and indicator cells. The reduction in light absorbance at 450 nm is used as an indicator of inhibition of cytokine-stimulated cellular proliferation. Typically, the cells are stimulated by the cytokines such that the absorbance of the well containing indicator cell line and the cytokine is between 2.0 and 3.0, which is reduced to a range of 0.1 to 0.5 by the addition of inhibitory peptides.
(§2) The growth-responses of the cells were determined 2 days after the introduction of BNZ-γ peptide and the cytokine using the WST-1 assay. […]
Background: Tetrazolium assays rely on reduction of a dye to a coloured formazan, in cell work by metabolically active cells.

Another data set deals with IL-15 (Homo sapiens, UniProt P40933). As to the kind of experiment: PT-18β proliferation assay (WST-1), IL-15. The format is cell-based. The note with it: PT-18β cells, 1 nM IL-15, BNZ-γ from HEK293T supernatant 1:20 or 1:50, 2 days.
Excerpt: as §1, §2

The target of another data set is T2, IL-9 (Mus musculus, UniProt P15247).
T2 sequence (P15247 19-144): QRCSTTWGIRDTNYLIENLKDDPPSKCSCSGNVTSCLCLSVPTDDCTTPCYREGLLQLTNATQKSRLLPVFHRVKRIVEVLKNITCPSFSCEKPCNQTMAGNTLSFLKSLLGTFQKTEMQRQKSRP
The data set is described as follows: PT-18β proliferation assay (WST-1), IL-9. The format is cell-based. The note with it: PT-18β cells, 1 nM IL-9, BNZ-γ from HEK293T supernatant 1:20 or 1:50, 2 days.
Excerpt: as §1, §2

For a further data set, the target named is T3, IL-3 (Mus musculus, UniProt P01586).
T3 sequence (P01586 27-166): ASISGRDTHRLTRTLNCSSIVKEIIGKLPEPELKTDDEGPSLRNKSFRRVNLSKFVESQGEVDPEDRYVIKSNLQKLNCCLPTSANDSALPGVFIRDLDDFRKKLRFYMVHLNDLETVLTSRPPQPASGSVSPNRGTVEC
The data set is described as follows: PT-18β proliferation assay (WST-1), IL-3 (non γc-cytokine control). The data set is classed as cell-based. To be noted: PT-18β cells, 1 nM IL-3, BNZ-γ from HEK293T supernatant 1:20 or 1:50, 2 days.
Excerpt: as §1, §2

For another data set, the system named is IL-2. As to the kind of experiment: PT-18 proliferation assay, IL-2 (FIG. 3A legend). The data set is classed as cell-based. As to the method:
The growth-responses of the cells were determined 2 days after the introduction of BNZ-γ peptide and the cytokine using the WST-1 assay. […] Cellular proliferation stimulated by IL-4, another γc-cytokine, was not affected by the by the addition of BNZ-γ peptide. Results for IL-3, IL-9, IL-15, and IL-4 are shown at FIG. 3A.

The test system of another data set is IL-6. As to the kind of experiment: T1165 proliferation in the presence of IL-6 (Example 25). The format is cell-based, human or mouse. Here is the method:
The BNZ130-1 polypeptide as presented in Table 2, above, is tested for its activity in inhibiting IL-6 activity. T1165 cells that are dependent on human or mouse IL-6 for their growth in vitro are selected. The cell line is cultured in the absence of IL-6, In the presence of IL-6, in the presence of BNZ130-1, and in the presence of IL-6 and BNZ130-1.

[3] abbreviates: HAM/TSP peripheral blood ex vivo culture, flow cytometry.

No end group written: not given here.

Sequence of IL-15 (P40933 49-162): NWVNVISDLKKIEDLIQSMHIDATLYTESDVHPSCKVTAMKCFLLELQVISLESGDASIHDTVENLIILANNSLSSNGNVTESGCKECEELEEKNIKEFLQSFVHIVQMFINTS

With “I-K-E-F-L-Q-R-F-I-H-I-V-Q-S-I-I-N-T-S (IKEFLQRFIHIVQSIINTS) [BNZ-γ]”, the γc-cytokines not inhibited result in the data set with γc-cytokines was “IL-4, IL-7 and IL-21”. Also, the γc-cytokines inhibited result in the data set on γc-cytokines (BNZ132-2 and BNZ132-3 data not shown) is “IL-2, IL-15 and IL-9”. Besides, the “tyrosine phosphorylation of STAT5” value in data set [1] is given as “markedly reduced”. Moreover, the “percent of live cells by Guava staining” value in data set [2] was “not impacted”. For the same substance, in [2] (HAM/TSP patient PBMC, 3, 4 and 6 days, 3H-thymidine), the “concentration at which spontaneous proliferation of T-cells is inhibited” value was “about 1 ug/ml”. Besides, in data set [2] (setting [3]), the “population of CD4+CD25+ cells” value was “diminished” and the “population of CD4+Ki67 cells” value is “reduced”. Also, the “cellular proliferation stimulated by IL-4” value with IL-4 was “not affected”. The “growth-promoting activity of IL-15” value with IL-15 is “significantly (p<0.01 Student's T test) reduced”. In the data set with IL-9, the “growth-promoting activity of IL-9” value was “significantly (p<0.01 Student's T test) reduced”. Also, in the data set with IL-3, the “growth-promoting activity of IL-3 (non γc-cytokine)” value is reported as “not inhibited”. In addition, the “IL-2 activity in PT-18 proliferation assay” value in the data set with IL-2 is “inhibition”.
Turning to LTHLIERSSRAVLQSLLRASRQ [BNZ130-1], the “effect on T1165 survival” value in the data set with IL-6 (Example 25, with or without IL-6) is recorded as “does not affect”. Further, in the data set on IL-6 (Example 25, written in present tense), the “antagonistic activity on T1165 proliferation in the presence of IL-6” value is “dose-dependent antagonistic activity”.
